pIC50: −log10 of the molar value.

The target of this experiment is T1, GLUT1 (Homo sapiens, UniProt P11166).
T1 sequence (P11166 1-492): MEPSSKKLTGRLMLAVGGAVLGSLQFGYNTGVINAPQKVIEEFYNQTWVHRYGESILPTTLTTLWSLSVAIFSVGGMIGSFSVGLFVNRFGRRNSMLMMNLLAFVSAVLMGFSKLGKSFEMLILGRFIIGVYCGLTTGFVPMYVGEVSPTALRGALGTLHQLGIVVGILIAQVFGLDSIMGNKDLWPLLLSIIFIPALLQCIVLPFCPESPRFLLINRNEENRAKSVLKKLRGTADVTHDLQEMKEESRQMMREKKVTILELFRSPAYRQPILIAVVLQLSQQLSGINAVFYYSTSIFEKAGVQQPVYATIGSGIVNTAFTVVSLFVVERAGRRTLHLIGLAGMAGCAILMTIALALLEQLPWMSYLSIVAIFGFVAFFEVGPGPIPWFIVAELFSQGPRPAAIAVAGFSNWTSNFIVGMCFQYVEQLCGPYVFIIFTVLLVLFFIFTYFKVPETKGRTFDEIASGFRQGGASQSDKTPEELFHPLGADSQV
The experiment is described as follows: Indirect measurement of GLUT1 activity by quantification of intracellular ATP levels (glucose induced ATP increase). The conditions noted are these: read-out: IC50 regarding glucose induced ATP increase (GLUT1 inhibition). On the set-up: endogenous in cells; host or cells: DLD1 or CHO-K1. Format: cell-based. A digest of the protocol: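 DLD1 or CHO-K1 cells were starved overnight in glucose-free medium with 1% FCS, then combined with an oxidative phosphorylation inhibitor. GLUT1 activity was read as glucose-induced ATP increase, GLUT2 as fructose-induced. Intracellular ATP was quantified by CellTiter-Glo luminescence.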
As usually defined, the pIC50 is −log10 of the IC50, conventionally taken in molar units. For the compound `Cc1nn(Cc2ccc(C(=O)Nc3ccccc3C(N)=O)cc2)c(C)c1NC(=O)c1cc(C(F)(F)F)nc2ccc(Br)cc12` [Example 1038], the pIC50 was 8.24.
To `Cc1c(NC(=O)c2cc(C(N)=O)nc3cc(F)ccc23)c(C(F)(F)F)nn1Cc1ccc(C(C)C)cc1` [Example 1406] belongs 6.92; to `Cc1c(NC(=O)c2cc(C(N)=O)nc3ccccc23)c(C(F)(F)F)nn1Cc1ccc(C#N)cn1` [Example 361, N^4-{1-[(5-cyanopyridin-2-yl)methyl]-5-methyl-3-(trifluoromethyl)-1H-pyrazol-4-yl}quinoline-2,4-dicarboxamide], 8.36.
In the case of `Cc1nn(Cc2ccc(C(=O)Nc3ccccn3)cc2)c(C)c1NC(=O)c1cc(C(F)(F)F)nc2ccc(Br)cc12` [Example 1064], the pIC50 is 7.73.
Take `Cc1nn(Cc2ccc(C#N)nc2)c(C)c1NC(=O)c1cc(C(N)=O)nc2ccc(F)cc12` [Example 1086]: the pIC50 was 7.50.
Consider `Cc1nn(CCOc2ccc(C#N)cc2)c(C)c1NC(=O)c1cc(C(F)(F)F)nc2ccc(Br)cc12` [Example 1344], for which the pIC50 is 6.49.
On to `CC(=O)Nc1ccc2nc(C(F)(F)F)cc(C(=O)Nc3c(C)nn(Cc4ccc(F)cc4)c3C)c2c1` [Example 1169], for which the pIC50 was 6.74.
To `COc1cccc(Cn2nc(C(F)(F)F)c(NC(=O)c3cc(C(N)=O)nc4ccccc34)c2C)c1` [Example 1448] belongs 8.16; to `Cc1c(NC(=O)c2cc(C(N)=O)nc3ccccc23)c(C(F)(F)F)nn1Cc1cc(C(C)C)no1` [Example 1552], 6.71; to `Cc1nn(Cc2ccccc2C#N)c(C)c1NC(=O)c1cc(C(F)(F)F)nc2ccc(Br)cc12` [Example 6, 6-bromo-N-[1-(2-cyanobenzyl)-3,5-dimethyl-1H-pyrazol-4-yl]-2-(trifluoromethyl)quinoline-4-carboxamide], 8.33.
Consider `CCc1cc(C(=O)Nc2c(C)nn(Cc3ccc(F)cc3)c2C)c2ccccc2n1` [Example 69, 2-ethyl-N-[1-(4-fluorobenzyl)-3,5-dimethyl-1H-pyrazol-4-yl]quinoline-4-carboxamide], for which the pIC50 is 6.79.
`CCc1c(NC(=O)c2cc(C(N)=O)nc3cccc(F)c23)c(C(F)(F)F)nn1Cc1ccc(C#N)cc1` [Example 316, N^4-[1-(4-cyanobenzyl)-5-ethyl-3-(trifluoromethyl)-1H-pyrazol-4-yl]-5-fluoroquinoline-2,4-dicarboxamide]: the pIC50 is 7.70.
On to `Cc1cc(C(=O)Nc2c(C)nn(Cc3ccc(F)cc3)c2C)c2cccc(C#N)c2n1` [Example 1308], for which the pIC50 was 4.77.
The figure for `Cc1c(NC(=O)c2cc(C(N)=O)nc3c(Cl)cccc23)c(C(F)(F)F)nn1Cc1ccc(C#N)cc1` [Example 338, 8-chloro-N^4-[1-(4-cyanobenzyl)-5-methyl-3-(trifluoromethyl)-1H-pyrazol-4-yl]quinoline-2,4-dicarboxamide] is 8.57; for `COc1cc(C(=O)Nc2c(C(F)(F)F)nn(Cc3ccc(C#N)cc3)c2C)c2cc(F)ccc2n1` [Example 1376] it is 7.72.
Consider `COc1cc(C(=O)Nc2c(C)nn(Cc3c(F)cc(F)cc3F)c2C)c2ccccc2n1` [Example 50, N-[3,5-dimethyl-1-(2,4,6-trifluorobenzyl)-1H-pyrazol-4-yl]-2-methoxyquinoline-4-carboxamide], for which the pIC50 is 7.30.
To `Cc1c(NC(=O)c2cc(C(N)=O)nc3cc(F)ccc23)c(C(C)C)nn1Cc1ccc(C#N)cc1` [Example 321, N^4-[1-(4-cyanobenzyl)-3-isopropyl-5-methyl-1H-pyrazol-4-yl]-7-fluoroquinoline-2,4-dicarboxamide] belongs 8.14; to `CC(=O)c1cccc(Cn2nc(C)c(NC(=O)c3cc(C(N)=O)nc4cccc(F)c34)c2C)c1` [Example 1624], 7.73.
For the compound `COc1cc(C(=O)Nc2c(C)nn(CCc3cccc(F)c3)c2C)c2ccccc2n1` [Example 1202], the pIC50 is 6.37.
The figure for `Cc1nn(Cc2ccc(C(=O)NCCC3CCCN3C)cc2)c(C)c1NC(=O)c1cc(C(F)(F)F)nc2ccc(Br)cc12` (stereo not drawn) [Example 1216] is 6.17.
The figure for `COc1cccc(Cn2nc(C(F)(F)F)c(NC(=O)c3cc(C(N)=O)nc4cc(F)c(Cl)cc34)c2C)c1` [Example 1446] is 8.72; for `Cc1nn(Cc2ccc(C#N)cc2F)c(C)c1NC(=O)c1cc(C(N)=O)nc2cc(F)ccc12` [Example 300, N^4-[1-(4-cyano-2-fluorobenzyl)-3,5-dimethyl-1H-pyrazol-4-yl]-7-fluoroquinoline-2,4-dicarboxamide] it is 9.30.
As to `Cc1nn(Cc2ccc(C#N)nc2)c(C)c1NC(=O)c1cc(C(N)=O)nc2cc(F)ccc12` [Example 292, N^4-{1-[(6-cyanopyridin-3-yl)methyl]-3,5-dimethyl-1H-pyrazol-4-yl}-7-fluoroquinoline-2,4-dicarboxamide], the pIC50 is 7.77.
To `Cc1ccc2nc(C)cc(C(=O)Nc3c(C)nn(Cc4cccc(C#N)c4)c3C)c2c1` [Example 1283] belongs 5.20; to `Cc1nn(Cc2ccc(CC(=O)N(C)C)cc2)c(C)c1NC(=O)c1cc(C(F)(F)F)nc2ccc(Br)cc12` [Example 156, 6-bromo-N-(1-{4-[2-(dimethylamino)-2-oxoethyl]benzyl}-3,5-dimethyl-1H-pyrazol-4-yl)-2-(trifluoromethyl)quinoline-4-carboxamide], 6.45; to `Cc1nn(Cc2cccc(C#N)n2)c(C)c1NC(=O)c1cc(C(N)=O)nc2cccc(F)c12` [Example 1709], 7.55.
Regarding `CNC(=O)c1nn(Cc2ccc(F)cc2)c(C)c1NC(=O)c1cc(C(F)(F)F)nc2ccc(Br)cc12` [Example 1126], the pIC50 was 7.10.
To `Cc1nn(Cc2ccccc2C#N)c(C)c1NC(=O)c1cc(C(N)=O)nc2cc(F)ccc12` [Example 266, N^4-[1-(2-cyanobenzyl)-3,5-dimethyl-1H-pyrazol-4-yl]-7-fluoroquinoline-2,4-dicarboxamide] belongs 9.00; to `Cc1nn(Cc2ccc(C#N)cc2F)c(C)c1NC(=O)c1cc(C(N)=O)nc2cc(F)c(F)cc12` [Example 298, N^4-[1-(4-cyano-2-fluorobenzyl)-3,5-dimethyl-1H-pyrazol-4-yl]-6,7-difluoroquinoline-2,4-dicarboxamide], 9.00.
The figure for `COc1cc(C(=O)Nc2c(C)nn(Cc3cccc(OC(F)(F)F)c3)c2C)c2ccccc2n1` [Example 115, N-{3,5-dimethyl-1-[3-(trifluoromethoxy)benzyl]-1H-pyrazol-4-yl}-2-methoxyquinoline-4-carboxamide] is 6.08; for `Cc1nn(Cc2ccc(CC(=O)NCc3cccnc3)cc2)c(C)c1NC(=O)c1cc(C(F)(F)F)nc2ccc(Br)cc12` [Example 157, 6-bromo-N-[3,5-dimethyl-1-(4-{2-oxo-2-[(pyridin-3-ylmethyl)amino]ethyl}benzyl)-1H-pyrazol-4-yl]-2-(trifluoromethyl)quinoline-4-carboxamide] it is 6.36; for `Cc1cccc(Cn2nc(C(F)(F)F)c(NC(=O)c3cc(C(N)=O)nc4ccccc34)c2C)c1` [Example 1478] it is 8.21.
For the compound `Cc1c(NC(=O)c2cc(C(N)=O)nc3cc(F)ccc23)c(C(F)(F)F)nn1Cc1ccc(C2CCC2)cc1` [Example 1616], the pIC50 is 7.17.

Source of the values: patent publication US20170037028A1 (BAYER PHARMA AKTIENGESELLSCHAFT, priority 2013, published 2017).
